Laboratory results taken from patent US20070093539A1, “N-hydroxy-4-(3-pheyl-5-methyl-isoxazole-4-yl)-benzenesulfonate solvates” (priority 2003, published 2007).

What was measured:
[1] = test system: carrageenan induced inflammatory hyperalgesia; test: Carrageenan induced inflammatory hyperalgesia (Randall-Selitto), acute model; assay type: in vivo, male SPRD rats; conditions: Acut model, 10 mg/kg p.o.
Procedure: (§1) Edema was induced by injection of Carrageenan (CA) into plantar surface of right hind paw. Male SPRD rats (weighing 140-190 g) were used n=6-8/group). Then the mechanical pain threshold of the inflamed hind paw was determined with an analgesimeter ((Ugo Basile, type: 37215).
(§2) This assay monitors the decrease of the pain threshold, and the time depending changing of the pain by mechanical pain stimulus. Analgesics can increase the pain threshold of the inflamed hinds and this effect is in terms of percentage of reversal.
(§3) Untreated right hind paw was compressed with a progressively increasing pressure. The pressure was recorded (in grams) when the animal first vocalized or made a vigorous attempt to remove the paw. It was determined to baseline threshold of the untreated paw. (average: 80-110 g). After it the animals were treated with carrageenan. After the treatment the edema and the threshold were checked in a given times. […] (Average of inflammation induced pain threshold was 20-25 g, this means 65-80% decrease related to the baseline.)
1 hour after the CA injection (100 μl of 2% solution) the animals were treated with test compounds and valdecoxib (10-10 mg/kg p.o.). […]
(§4) The chronic phase of the inflammantion and the decreasing of the threshold were induced by higher dose of CA. Inflammation induced threshold decreasing was measured 24 hours after the CA injection (150 μl of 2% solution). ) After it the animals were treated with test compounds and valdecoxib (30-30 mg/kg p.o.). Change in the threshold was checked at 1 h, 2 h, and 3 h following drug administration. In both model used control groups were treated orally only with solvents at the time of treatments. In both protocol the effects of the test compounds were calculated in percentage reversal of mechanical hiperalgesia: [formula] • T3h: In acute model, the threshold in the control group at 3 h after the CA injection (in gram) • T24h: In chronic model, the threshold in the control group at 24 h after the CA injection (in gram) • T0h: The threshold before the CA injection (in gram) • TXh In acute model, at 3h after the CA injection • TXh=In chronic model, at 25 h, 26 h, 27 h after the CA injection

[2] = test system: carrageenan induced inflammatory hyperalgesia; test: Carrageenan induced inflammatory hyperalgesia (Randall-Selitto), chronic model; assay type: in vivo, male SPRD rats; conditions: 30 mg/kg p.o.
Procedure: as §1, §2, §3, §4

isolated rabbit heart = test: Cardiac effects on the isolated rabbit heart (Langendorff, coronary flow); set-up: species or system New Zealand white rabbits; coronary flow: unit not given here; conditions: for coronary flow % changing: versus basic value
Procedure: New Zealand white rabbits weighing 1.5-2 kg were used. The animals were exsanguinated and after thoracotomy the hearts were excised and mounted on a Langendorff-type perfusion apparatus. The hearts were perfused via the aorta with oxigenated, thermostated (37° C.) Krebs solution. A constant perfusion pressure of 80 cmH2O was applied. The test compounds were dissolved in the perfusion solution to obtain the requested concentrations.
The basic value of coronary flow was determined. Afterwards the small amount of compounds were added to perfusion liquid and the perfusion was measured for 30 minutes at every 10 minutes. Afterwards 30 minutes perfusion was performed without compound and the measure was repeated with the medium and high amount of compounds.
The effects of same concentration of valdecoxib and compound of example 1 were investigated in 4-4 hearts (1, 3 and 10 μM). Valdecoxib had no effect in either concentration. It can clearly be shown that the coronary flow was increased dose dependently. This effect is advantageous in practice of clinical therapy, because the painful arthritic and degenerative joint and bone deformations are emerged rather in old age, when diseases of the vascular system are also frequently encountered, which can conduce to disorder of vascular bed of the heart.

[3] = test system: carrageenan and kaolin induced monoarthritis; test: Carrageenan and kaolin induced monoarthritis model (incapacitance test); assay type: in vivo, rats; conditions: 10 mg/kg p.o.
Procedure: The Incapacitance tester is an apparatus for measure the changes of the functional parameters induced of the pain, which can register the bearing on the hind limb, the amount of the moving and the changing of the centre of gravity. Knee-joint of the right-back limb was treated with solution of 100 μl 2% carrageenan and kaolin. During 3-4 hours after the treatment arthritis was emerged in the capsular ligament of the treated limb. This inflammation still exists at 24 hours after the treatment. Because of the pain the animals coddles the treated limbs, thy weign on it less. Change of weight load is measurable with Incapacitance tester device in grams. The incapacitance was calculated as follows: [formula] Analgesic-antiinflammantory compounds could increase the stimulus threshold of the knee-joint, and consequently to improve the functional parameters of the limb. Measure of this can be counted by the decrease of the loading of left leg i.e. in terms of percentage of reversal. [formula] The Incapacitance induced by administration of irritants in left paw was measured at 4 hour after the injection. Afterwards the animals (n=24-32/group) were. orally treated with dose of 10 mg/kg valdecoxib and test compounds. Measurements were done at 1 and 2 hours after the treatments.

[4] = test system: carrageenan-induced foot paw edema; test: Carrageenan-induced rat foot paw edema assay; assay type: in vivo, male Wistar rats; conditions: for ED30 of edema inhibition: p.o.
Procedure: The edema was induced in male Wistar rats (140-150 g) by subcutaneous injection of carrageenan (50 μl of 1% suspension) into the right hind paw. The formed inflammation was measured with plethysmometer (Ugo Basile, type: 7150). The treated paw was placed into the plethysmometer (filled with 0.3% additives in 0.5% saline), the level of the inflammation was detected by the volume of the displaced solution. This volume was compared with the initial preinjection paw volume. Level of the inflammation (ml)=volume after CA treatment (ml)−volume before CA treatment (ml) The inflammation induced in treated group was compared to control group (which was given only vehicle). The sample materials and the solvent were dosed per os via gastro-sonde 1 hour before the CA treatment. The volume of the treated limb was measured at 3h and 5h after CA treatments. The change of the inflammation level was calculated as follows: [formula]

N-hydroxi-4-(3-phenyl-5-methyl-isoxazole-4-yl)-benzenesulfonamide monohydrate [example 1]
Analgesic effect in % after p.o. treatment ([1]; 2 hours): 64.6% | Analgesic effect in % after p.o. treatment ([1]; 3 hours): 40.7% | Analgesic effect in % after p.o. treatment ([1]; 4 hours): 12.3% | Analgesic effect in % after p.o. treatment ([2]; 1 hour): 57.8% | Analgesic effect in % after p.o. treatment ([2]; 2 hours): 63.9% | Analgesic effect in % after p.o. treatment ([2]; 3 hours): 42.0% | coronary flow (isolated rabbit heart; 1 μM, 10 minutes of treatment): 40.0 ± 3.3 | coronary flow % changing (isolated rabbit heart; 1 μM, 10 minutes): 16.6% | coronary flow (isolated rabbit heart; 1 μM, 20 minutes of treatment): 39.0 ± 3.0 | coronary flow % changing (isolated rabbit heart; 1 μM, 20 minutes): 13.7% | coronary flow (isolated rabbit heart; 1 μM, 30 minutes of treatment): 37.5 ± 2.4 | coronary flow % changing (isolated rabbit heart; 1 μM, 30 minutes): 9.3% | coronary flow (isolated rabbit heart; 3 μM, 10 minutes of treatment): 37.3 ± 2.3 | coronary flow % changing (isolated rabbit heart; 3 μM, 10 minutes): 24.3% | coronary flow (isolated rabbit heart; 3 μM, 20 minutes of treatment): 37.5 ± 1.7 | coronary flow % changing (isolated rabbit heart; 3 μM, 20 minutes): 25.0% | coronary flow (isolated rabbit heart; 3 μM, 30 minutes of treatment): 38.8 ± 1.3 | coronary flow % changing (isolated rabbit heart; 3 μM, 30 minutes): 26.0% | coronary flow (isolated rabbit heart; 10 μM, 10 minutes of treatment): 45.8 ± 2.5 | coronary flow % changing (isolated rabbit heart; 10 μM, 10 minutes): 63.6% | coronary flow (isolated rabbit heart; 10 μM, 20 minutes of treatment): 48.3 ± 4.8 | coronary flow % changing (isolated rabbit heart; 10 μM, 20 minutes): 72.5% | coronary flow (isolated rabbit heart; 10 μM, 30 minutes of treatment): 49.0 ± 4.8 | coronary flow % changing (isolated rabbit heart; 10 μM, 30 minutes): 75.0% | effect on coronary flow (in words) (isolated rabbit heart; 1, 3 and 10 μM, 4-4 hearts): positive effect | Analgesic effect (% reversal) after p.o. treatment ([3]; 1 hour): 63.2 % reversal | Analgesic effect (% reversal) after p.o. treatment ([3]; 2 hours): 76.9 % reversal | edema inhibition effect % ([4]; 0.3 mg/kg p.o., 4 hours after treatment): 19.5% | edema inhibition effect % ([4]; 0.3 mg/kg p.o., 6 hours after treatment): 17.5% | edema inhibition effect % ([4]; 1.0 mg/kg p.o., 4 hours after treatment): 25.2% | edema inhibition effect % ([4]; 1.0 mg/kg p.o., 6 hours after treatment): 37.2% | edema inhibition effect % ([4]; 3.0 mg/kg p.o., 4 hours after treatment): 33.9% | edema inhibition effect % ([4]; 3.0 mg/kg p.o., 6 hours after treatment): 40.4% | edema inhibition effect % ([4]; 10.0 mg/kg p.o., 4 hours after treatment): 40.7% | edema inhibition effect % ([4]; 10.0 mg/kg p.o., 6 hours after treatment): 59.2% | ED30 of edema inhibition ([4]; 4 hours after treatment): 1.8 mg/kg | ED30 of edema inhibition ([4]; 6 hours after treatment): 0.8 mg/kg
